Results published in PubChem BioAssay (NCI).
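Step 1: Grow cells in 96-well plates. Step 2: Expose to compound for 48 hours at 5 concentrations. Step 3: Interpolate endpoints linearly; if unreached, use highest concentration. GI50 marks 50% less growth. TGI denotes the concentration required for complete inhibition of growth.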

Assays:
Assay in all cases: NCI anticancer screen, dose series, 48 h
OVCAR-4 ovarian = test system: OVCAR-4 ovarian
PC-3 prostate = test system: PC-3 prostate
MOLT-4 leukemia = test system: MOLT-4 leukemia
SNB-19 CNS = test system: SNB-19 CNS
K-562 leukemia = test system: K-562 leukemia
MDA-MB-435 = test system: MDA-MB-435
UACC-257 melanoma = test system: UACC-257 melanoma
HT29 colon = test system: HT29 colon
HCT-15 colon = test system: HCT-15 colon
HL-60(TB) leukemia = test system: HL-60(TB) leukemia

| Structure (SMILES) | TGI (OVCAR-4 ovarian) [µM] | TGI (PC-3 prostate) [µM] | TGI (MOLT-4 leukemia) [µM] | TGI (SNB-19 CNS) [µM] | TGI (K-562 leukemia) [µM] | TGI (MDA-MB-435) [µM] | TGI (UACC-257 melanoma) [µM] | TGI (HT29 colon) [µM] | TGI (HCT-15 colon) [µM] | TGI (HL-60(TB) leukemia) [µM] | GI50 (OVCAR-4 ovarian) [µM] |
| --- | --- | --- | --- | --- | --- | --- | --- | --- | --- | --- | --- |
| CC(=O)Oc1ccn2nc(C)c(Br)c2c1 | > 100 | > 86.5 | > 100 | > 100 | > 100 | > 61.8 | 99.5 | > 100 | > 100 | > 86.5 | – |
| COc1ccc([C@]23CCC4(OCC(C)(C)CO4)[C@H]4CON(O[C@H](O[C@@H]5CCCCC5C(C)(C)c5ccccc5)C2)[C@@H]43)cc1OC (some centres undefined) | > 100 | > 100 | 53.1 | > 100 | > 100 | > 100 | > 100 | > 100 | > 100 | 44.4 | – |
| O=C(c1ccc([N+](=O)[O-])cc1)N1CCCC1 | > 100 | > 100 | > 100 | > 100 | > 100 | > 100 | > 100 | > 100 | > 100 | > 100 | – |
| CCn1ncc2c(=O)n3ncn(-c4ccc(Br)cc4)c3nc21 | > 100 | > 100 | > 100 | > 100 | > 100 | > 100 | > 100 | > 100 | > 100 | > 100 | – |
| CS(=O)(=O)Nc1ccc2ccccc2c1 | > 100 | > 100 | > 100 | > 100 | > 100 | > 100 | > 100 | > 100 | > 100 | > 100 | – |
| CCOC(=O)C(NC(=O)c1cccc(Cl)c1)(Nc1cccc(C)c1)C(F)(F)F (centres undefined) | 62.8 | 43.6 | 67.8 | > 100 | > 100 | 43.8 | 71.5 | 27.8 | 31.2 | > 100 | – |
| c1ccc2c(c1)cc1ccc3cccc4ccc2c1c34 | > 100 | > 100 | > 100 | > 100 | > 100 | > 100 | > 100 | > 100 | > 100 | > 100 | > 100 |
| O=C(C(=C(I)I)c1ccccc1)c1ccccc1 | > 100 | > 100 | 58.1 | > 100 | 21.4 | > 100 | > 100 | > 100 | > 100 | 52.3 | – |
| CC1=C(C(=O)OCCO[N+](=O)[O-])C(c2ccccc2[N+](=O)[O-])C(C(=O)OC(C)C)=C(C)N1 (centres undefined) | 52.3 | 23.2 | > 100 | 39.6 | > 100 | 28.5 | 28.7 | 30.3 | 30.9 | > 100 | – |
| CC[C@H](NC(=O)OC(C)(C)C)C(=O)NCP(=O)(OCc1ccc([N+](=O)[O-])cc1)OCc1ccc([N+](=O)[O-])cc1 | > 100 | > 100 | > 100 | > 100 | – | > 100 | 26.9 | 51.8 | > 100 | 62.2 | – |
| CC/C=N\N1C(N)=C(C#N)C(C#N)(C#N)C1CC (centres undefined) | > 100 | > 100 | > 100 | > 100 | > 100 | > 100 | > 100 | 86.4 | > 100 | 85.6 | – |
| CC1=NN2C(=N)/C(=C/c3ccc(F)cc3)C(=O)N=C2S1 | > 100 | > 100 | > 100 | > 100 | > 100 | > 100 | > 100 | > 100 | > 100 | > 100 | – |
| N#C/C(C(=O)NCc1ccccc1)=C(/N)N1CCCC1 | > 100 | > 100 | > 100 | > 100 | > 100 | > 100 | > 100 | > 100 | > 100 | > 100 | – |
| CC(C)=CCc1c(O)cc2oc(-c3ccc(O)cc3O)cc(=O)c2c1O | 50.8 | 98.2 | – | > 100 | > 59.2 | > 75.5 | > 83.8 | 49.8 | > 63.2 | 51 | – |
| CSc1ncc2c(n1)-c1ccccc1OC2NC1CC1 (centres undefined) | > 100 | > 100 | > 100 | > 100 | > 100 | > 100 | > 100 | > 100 | > 100 | 73.3 | – |
| CCc1nc2c(c(N(C)C)c1C(=O)OC)CCc1ccccc1-2 | > 100 | 40 | 23 | > 100 | 77.3 | 65.6 | 68.9 | > 100 | > 100 | 9.43 | – |
| Cn1c(=O)cc(NNc2ccc(Cl)c(Cl)c2)[nH]c1=O | 28.3 | 25.4 | 58.2 | > 100 | 23.1 | 14.1 | 28.6 | 40.9 | 18.5 | 91 | – |
| C=C(C)[C@H]1CC23C(=O)[C@@](C)(C[C@H]2C1(C)C)C(=O)C(C(=O)C(C)C)=C3O | 34.9 | 33 | 19 | 69.7 | 49.3 | 31.3 | 62.3 | 26.4 | 33.1 | 41.6 | – |
| COc1ccc(-c2cc3cc(Cl)cc(Cl)c3oc2=O)cc1OC | > 100 | > 100 | > 100 | > 100 | > 100 | > 100 | > 100 | > 100 | > 100 | > 100 | – |
| CCOC(=O)[C@@H](Cc1ccc(CCl)cc1)NC(C)=O | 41.1 | > 100 | > 100 | 79.2 | > 100 | 48.7 | 40.2 | > 100 | 94.1 | 70.7 | – |
| CSc1ccc(/C=C2\N=C(c3ccccc3)N(c3nc4cc(Cl)c(F)cc4s3)C2=O)cc1 | 82.7 | > 100 | > 100 | 76.6 | > 100 | > 100 | > 100 | > 100 | > 100 | > 100 | – |
